According to patent US20260325464A1, “COMPOSITIONS FOR MODULATING THE EXPRESSION OF AQUAPORINS IN NEURODEGENERATIVE DISORDERS” (priority 2023, published 2026):
Marks after values point to notes of the source that are not given here.

What was measured:
Assay type in all cases: in vivo, rat
[1] = test system: Parkinson's disease; experiment: Y-maze test in rats with reserpine-induced Parkinson's disease; settings: 25 mg/kg, p.o. + Reserpine (4 mg/kg, s.c.); Y maze; Mean ± SEM, n = 6
Text: (§1) The induction of Parkinson's disease and measurement of other parameters were done as per the reported protocol (Santos et al., Cognitive, motor and tyrosine hydroxylase temporal impairment in a model of parkinsonism induced by reserpine. Behav Brain Res. 2013; 253:68-77 and Shishehbore et al. A novel kinetic spectrophotometric method for the determination of dopamine in biological and pharmaceutical samples. J Chem. 2013; 2013:1-6). Induction of Parkinson's disease was done by administering Resperine, which inhibits the monoamine vesicular transporters, thus decreasing the levels of monoamine neurotransmitters in the brain. Following pretreatment for 14 days with Gingerenone A, the rat groups received subcutaneous injections of reserpine (4 mg/kg) for the final five days of the treatment regimen. Resperine (5 mg) was dissolved in 1 ml of 1% acetic acid and then diluted tenfold with distilled water to achieve a final concentration of 500 μg/ml. The normal control group received saline with 1% acetic acid […], administered from day 10 to day 14. Thirty minutes following the administration of reserpine on the 14th day, behavioural assessments were conducted using the Open Field test, Y Maze, and Catalepsy tests to evaluate changes. Rats administered with Carbidopa, a known drug for the management of Parkinson's disease was also used for comparison. Upon completion of the study, brains were harvested for biochemical analyses and histopathological studies. The experimental group is depicted in table 10.
Y-maze test—In the Y-maze test, spontaneous alterations serve as an indicator of working short-term memory.
The maze consisted of a triangular central area with three equilateral arms labeled A, B, and C, each measuring 35 cm in length, 25 cm in height, and 10 cm in width. During the test, each rat was placed in the central area, facing one of the arms. An entry was scored when all four paws of the rat entered an arm. Spontaneous alterations in behavior were defined as consecutive entries into different arms (e.g., ABC, BCA, or CAB, but not CAC). The maximum number of spontaneous alterations ([…]) and the percentage of spontaneous alterations (actual number of alterations divided by the maximum alterations, multiplied by 100) were calculated for each rat (Kraeuter et al., The Y-Maze for Assessment of Spatial Working and Reference Memory in Mice. Methods Mol Biol. 2019; 1916:105-111).

[2] = test system: Parkinson's disease; experiment: Catalepsy test in rats with reserpine-induced Parkinson's disease; design: catalepsy score at 30 min / catalepsy score at 60 min / catalepsy score at 120 min: unit not given here; settings: 25 mg/kg, p.o. + Reserpine (4 mg/kg, s.c.), Mean ± SEM, n = 6
Text: as §1
NeuroMol Med. 202022(2):314-330. Catalepsy in rats' manifests as an unresponsiveness to external stimuli accompanied by muscle rigidity. During the catalepsy test, rats were positioned on a wooden bar elevated 3-9 cm above the surface, with their forelimbs resting on it after administration of reserpine. The time taken for the rats to correct their posture was recorded as an indicator of catalepsy. Catalepsy ceased either when the rats climbed up the bar or when their forelimbs touched the floor. Observations were made at 30, 60, and 120 minutes after administration. All assessments were conducted in a quiet environment at a temperature of 23-25 degrees Celsius, with a maximum observation time of 5 minutes per trial.

[3] = test system: Parkinson's disease; experiment: Open field test in rats with reserpine-induced Parkinson's disease; settings: 25 mg/kg, p.o. + Reserpine (4 mg/kg, s.c.); open field; Mean ± SEM, n = 6
Text: as §1
Open filed test—The test was conducted as per protocol described by Saleem et al., Pharmacological Potential of the Standardized Methanolic Extract of Prunus armeniaca L. in the Haloperidol-Induced Parkinsonism Rat Model. Evid Based Complement Alternat Med. 2022:29; 3697522. doi: 10.1155/2022/3697522. This test was conducted to assess the locomotor and exploratory behaviors of the experimental rats. A square-shaped wooden box measuring 100 cm in width, 100 cm in […], and 45 cm in height was constructed using plywood material, painted white, with a black-lined floor divided into 25 blocks. The rats were placed in the center of the field for a duration of 5 minutes and allowed to explore the box freely. The number of squares crossed, both centrally and horizontally, along with the total number of crossings, instances of defecation, freezing behavior, and postures were recorded during this period. Normal animals readily and quickly acclimate to the chamber and try to explore the center area of the squares.

[4] = test system: Alzheimer's disease; experiment: Elevated plus maze (EPM) test in rats with AlCl3-induced Alzheimer's disease; settings: 5 mg/kg, p.o. + AlCl3 (100 mg/kg, i.p.), Mean ± SEM, n = 6
Protocol: Elevated plus maze (EPM)—Elevated plus maze (EPM)—This test was performed as per reported protocol (Bhuvanendran et al., Amelioration of cognitive deficit by Embelin in a Scopolamine-induced Alzheimer's disease-like condition in a rat model. Front Pharmacol. 2018:9(6):1-12 and Biradar et al., (2020) Experimental validation and network pharmacology evaluation to decipher the mechanism of action of Erythrina variegata L. bark against scopolamine-induced memory impairment in rats. Adv Tradit Med. 2020:26:1-4). EPM contains 2 closed and 2 open arms (four arms; equal dimensions of 50×10 cm). These 4 arms connect at central with a 10×10 cm square gap as an initial point. The transfer latency (TL) was recorded via stopwatch by keeping rats independently toward one side of the open arm. The EPM TL cut-off was set to 60 s throughout the study. […] Index of memory improvement is measured as a drop of transfer Latency (TL) by test drug.
The elevated plus maze is a test that is widely used to assess the anti-anxiety effects of test substances. As the test measures open arm activity, an increase in open arm activity (duration and/or entries) reflects anti-anxiety behaviour (Walf et al., The use of the elevated plus maze as an assay of anxiety-related behavior in rodents, Nat Protoc. 2007; 2(2): 322-328). In the present study, inducing Alzheimer's in the animals increased their anxiety which was reduced by the administration on Gingerenone A (Table 3).

[5] = test system: IL-1β; experiment: Inflammatory marker IL-1β (ELISA), AlCl3 Alzheimer's model; settings: 5 mg/kg, p.o. + AlCl3 (100 mg/kg, i.p.); n = 6
Text: (§2) The inflammatory markers Fibrinogen, IL-1β were estimated using ELISA kit (Krishgen Biosystems, India).

[6] = test system: Fibrinogen; experiment: Inflammatory marker fibrinogen (ELISA), AlCl3 Alzheimer's model; settings: 5 mg/kg, p.o. + AlCl3 (100 mg/kg, i.p.); Mean ± SEM, n = 6
Text: as §2

[7] = test system: Alzheimer's disease; experiment: Morris water maze (MWM) test in rats with AlCl3-induced Alzheimer's disease; settings: 5 mg/kg, p.o. + AlCl3 (100 mg/kg, i.p.); MWM at 17th day; Mean ± SEM, n = 6
Protocol: Morris water maze (MWM)—This test was performed as per protocol established by Ishola et al., Protective role of Spondiasmombin leaf and Cola acuminata seed extracts against scopolamine-induced cognitive dysfunction. Alexandria J Med. 2018; 54(1):27-39. MWM is a round water tank “diameter: 110 cm and height: 60 cm” consisting of a white surface and that is filled using opaque water (Temp. 26±2° C.) to a distance (depth) of 30 cm. The MWM tank circle is divided into 4 equal quadrants [North Quadrant 1, East Quadrant 2, West Quadrant 3, and South Quadrant 4]. Further, it consists of a 10 cm diameter platform in a constant position. Index of memory improvement is measured by the Escape Latency Time (ELT)—which is the time the animal takes to find the platform.
The MWM plays an important role in the testing of learning and memory in rodent models of Alzheimer's Disease. It is used to test hippocampal-dependent learning, including acquisition of spatial memory and long-term spatial memory (Bromley-Brits et al., Morris water maze test for learning and memory deficits in Alzheimer's disease model mice, J Vis Exp., 2011 Jul. 20:(53):2920). In this study, learning was impaired in the Alzheimer's group.

[8] = test system: Apolipoprotein E; experiment: Apolipoprotein E level in plasma (ELISA), AlCl3 Alzheimer's model; settings: 5 mg/kg, p.o. + AlCl3 (100 mg/kg, i.p.); plasma; Mean ± SEM, n = 6
Text: (§3) The levels of Tau, β-amyloid (1-42) and Apolipoprotein E were estimated. using ELISA kit (Krishgen Biosystems, India). All the protein biomarkers of AD were elevated in the AD control group.

[9] = test system: β-amyloid (1-42); experiment: β-amyloid (1-42) level in plasma (ELISA), AlCl3 Alzheimer's model; settings: 5 mg/kg, p.o. + AlCl3 (100 mg/kg, i.p.); plasma; Mean ± SEM, n = 6
Text: as §3

## C[C@@](Cc1ccc(O)c(O)c1)(NN)C(=O)O [Carbidopa, reference compound]
[1]
  No of arm entries: 12.58 ± 1.04
  Spontaneous alterations (%): 27.31 ± 1.56 %
[2]; 30 min
  catalepsy score at 30 min: 1.52 ± 0.42
[2]; 60 min
  catalepsy score at 60 min: 1.60 ± 0.70
[2]; 120 min
  catalepsy score at 120 min: 1.45 ± 0.70
[3]
  Freezing: 9.63 ± 0.60 s
  Number of central explorations: 20.25 ± 1.03
  Number of squares crossed: 31.80 ± 3.18

## COc1cc2c(cc1OC)C(=O)C(CC1CCN(Cc3ccccc3)CC1)C2 (stereo not drawn) [Donepezil, reference compound]
[4]; 16th day
  EPM at 16th day Transfer Latency: 18.57 ± 0.68 s
[4]; 17th day
  EPM at 17th day Transfer Latency: 18.22 ± 0.92 s
[5]
  IL-1β: 62.16** pg/ml
[6]
  Fibrinogen: 16.77 ± 0.053 ng/mL
[7]
  Escape Latency Time: 26.96 ± 2.58 s
[8]
  Apolipoprotein E: 6.96 ± 0.065 ng/mL
[9]
  β-amyloid: 8.02 ± 0.043 pg/mL
